Experimental data as given in patent publication US12503452B2 (Curza Global, LLC, priority 2019, dated 2025).
Structures can show the parent of a compound that is named as a salt. Where two headings read alike, the source gives them in different places.

Experiments:
S. aureus (Sa) = test: Broth microdilution minimum inhibitory concentration (MIC); assay type: cell-based; conditions: for MIC: Staphylococcus aureus, read-out: Sa + bicarb MIC
In short: (§1)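 MICs were run in triplicate per CLSI microdilution (modified, 8 dilution steps), inoculating 5×10^4 CFU/well prepared from colonies grown at 35±2° C to 0.5 McFarland. Media: CAMHB alone, with 6.25 or 25 mM final sodium bicarbonate, or with 0–50% heat-inactivated human serum.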

P. aeruginosa (Pa) = test: as above; assay type: cell-based; conditions: for MIC: Pseudomonas aeruginosa, read-out: Pa MIC + bicarb
In short: as §1

E. coli (Ec) = test: as above; assay type: cell-based; conditions: for MIC: Escherichia coli, read-out: E. coli + bicarb MIC
In short: as §1

A. baumannii (Ab) = test: as above; assay type: cell-based; conditions: for MIC: Acinetobacter baumannii, read-out: Ab + bicarb MIC
In short: as §1

E. faecalis (Ef) = test: as above; assay type: cell-based; conditions: for MIC: Enterococcus faecalis, read-out: Ef + bicarb MIC
In short: as §1

[1] = system: E. coli S30 extract (bacterial protein synthesis); test: E. coli S30 extract coupled transcription-translation luciferase assay (inhibition of bacterial protein synthesis); assay type: biochemical; conditions: read-out: S30 IC50 (μM/% inhib.)
In short: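 Luminescent read-out of luciferase made from pBESTluc DNA by E. coli S30 extract after 1 h at 37 °C with compound in an 8-point 2-fold series. Background came from no-DNA reactions. Percent inhibition was calculated against water-only controls.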

[2] = biological target: Rabbit Reticulocyte Lysate (eukaryotic protein synthesis); test: Rabbit reticulocyte lysate luciferase assay (inhibition of eukaryotic protein synthesis); assay type: biochemical; conditions: read-out: Rabbit reticulocyte IC50 (μM/% inhib.)
In short: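 Compounds were tested in 8-point 2-fold dilution series for blocking luciferase synthesis in nuclease-treated rabbit reticulocyte lysate (30° C., 90 minutes). Luminescence read-out, corrected by no-RNA background, was expressed as % inhibition against water-only reactions.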

[3] = class by IC50 or % inhibition @ 1 μM
[4] = S. aureus, growth medium supplemented with sodium bicarbonate
[5] = P. aeruginosa, growth medium supplemented with sodium bicarbonate
[6] = E. coli, growth medium supplemented with sodium bicarbonate
[7] = A. baumannii, growth medium supplemented with sodium bicarbonate
[8] = E. faecalis, growth medium supplemented with sodium bicarbonate
[9] = S. aureus, growth medium with sodium bicarbonate
[10] = P. aeruginosa, growth medium with sodium bicarbonate
[11] = E. coli, growth medium with sodium bicarbonate
[12] = A. baumannii, growth medium with sodium bicarbonate
[13] = E. faecalis, growth medium with sodium bicarbonate

Structure (SMILES)	IC50 [1, 3]	IC50 [2, 3]	MIC (S. aureus (Sa); [4])	MIC (P. aeruginosa (Pa); [5])	MIC (E. coli (Ec); [6])	MIC (A. baumannii (Ab); [7])	MIC (E. faecalis (Ef); [8])	MIC (S. aureus (Sa); [9])	MIC (P. aeruginosa (Pa); [10])	MIC (E. coli (Ec); [11])	MIC (A. baumannii (Ab); [12])	MIC (E. faecalis (Ef); [13])	further results
CC(C)(N)C(=O)N1CCN(C(=O)Nc2ccn(-c3ccc(CNC4C[C@@H](N)C[C@@H](N)C4)cc3)c(=O)n2)CC1 (stereo partly drawn) [Compound 321, hydrochloride salt]	< 0.5 µM	> 1 µM	–	–	–	–	–	–	–	–	–	–	MIC (S. aureus (Sa)): > 32 µg/mL; MIC (P. aeruginosa (Pa)): > 32 µg/mL; MIC (E. coli (Ec)): 8 to 32 µg/mL; MIC (A. baumannii (Ab)): > 32 µg/mL; MIC (E. faecalis (Ef)): > 32 µg/mL
CC(C)(N)C(=O)N1CCN(C(=O)Nc2ccn(-c3ccc(CN(CC4CC4)[C@H]4CC[C@H](N)CC4)cc3)c(=O)n2)CC1 [Compound 130]	< 0.5 µM	> 1 µM	< 8 µg/mL	8 to 32 µg/mL	< 8 µg/mL	8 to 32 µg/mL	< 8 µg/mL	–	–	–	–	–	–
CC(C)(N)C(=O)N1CCN(C(=O)Nc2ccn(-c3ccc(CN4CC[C@@H](N)[C@H](CO)C4)cc3)c(=O)n2)CC1 [Compound 227]	> 1 µM	> 1 µM	–	–	–	–	–	> 32 µg/mL	> 32 µg/mL	8 to 32 µg/mL	> 32 µg/mL	> 32 µg/mL	–
CC(C)(N)C(=O)N1CCN(C(=O)Nc2ccn(-c3ccc(CN[C@H]4CC[C@H](N)CC4)c(F)c3)c(=O)n2)CC1 [Compound 330, 4-(2-Amino-2-methylpropanoyl)-N-(1-(4-(((trans-4-aminocyclohexyl)amino)methyl)-3-fluorophenyl)-2-oxo-1,2-dihydropyrimidin-4-yl)piperazine-1-carboxamide hydrochloride salt]	< 0.5 µM	> 1 µM	–	–	–	–	–	–	–	–	–	–	MIC (S. aureus (Sa)): 8 to 32 µg/mL; MIC (P. aeruginosa (Pa)): > 32 µg/mL; MIC (E. coli (Ec)): < 8 µg/mL; MIC (A. baumannii (Ab)): > 32 µg/mL; MIC (E. faecalis (Ef)): > 32 µg/mL
CC(Cc1ccc(-n2ccc(NC(=O)N3CCN(C(=O)C(C)(C)N)CC3)nc2=O)cc1)N(C)CC1CNC1 (stereo not drawn) [Compound 166]	> 1 µM	> 1 µM	–	–	–	–	–	8 to 32 µg/mL	> 32 µg/mL	8 to 32 µg/mL	> 32 µg/mL	> 32 µg/mL	–
CC(CN1CC[C@@H](CN)C1)Oc1ccc(-n2ccc(NC(=O)N3CCN(C(=O)C(C)(C)N)CC3)nc2=O)cc1 (stereo partly drawn) [Compound 185]	< 0.5 µM	> 1 µM	–	–	–	–	–	< 8 µg/mL	> 32 µg/mL	< 8 µg/mL	> 32 µg/mL	8 to 32 µg/mL	–
CC(C)(N)C(=O)N1CCN(C(=O)Nc2ccn(-c3ccc(CC(=O)N4CCC(N)CC4)cc3)c(=O)n2)CC1 [Compound 269]	> 1 µM	> 1 µM	–	–	–	–	–	> 32 µg/mL	> 32 µg/mL	8 to 32 µg/mL	> 32 µg/mL	> 32 µg/mL	–
CC(Cc1ccc(-n2ccc(NC(=O)N3CCN(C(=O)C(C)(C)N)CC3)nc2=O)cc1)N1CC[C@H](CN)C1 (stereo partly drawn) [Compound 378]	–	–	–	–	–	–	–	–	–	–	–	–	Sa + bicarb MIC (S. aureus (Sa); [9]): +++ (An MIC value (μg/mL) that is less than 8 μg/mL); Pa MIC + bicarb (P. aeruginosa (Pa); [10]): + (An MIC value (μg/mL) that is 32 μg/mL or greater); E. coli + bicarb MIC (E. coli (Ec); [11]): +++ (An MIC value (μg/mL) that is less than 8 μg/mL); Ab + bicarb MIC (A. baumannii (Ab); [12]): + (An MIC value (μg/mL) that is 32 μg/mL or greater); Ef + bicarb MIC (E. faecalis (Ef); [13]): ++ (An MIC value (μg/mL) that is 8 μg/mL or greater and less than 32 μg/mL); IC50 ([1]; % inhibition @ 1 μM): < 0.5 µM; IC50 ([2]; % inhibition @ 1 μM): > 1 µM
CCN(C[C@H]1C[C@@H](N)C1)C(C)Cc1ccc(-n2ccc(NC(=O)N3CCN(C(=O)C(C)(C)N)CC3)nc2=O)cc1 (stereo partly drawn) [Compound 161]	< 0.5 µM	> 1 µM	< 8 µg/mL	> 32 µg/mL	< 8 µg/mL	8 to 32 µg/mL	< 8 µg/mL	–	–	–	–	–	–
Cc1cc(-n2ccc(NC(=O)N3CCN(C(=O)[C@@](C)(N)CO)CC3)nc2=O)ccc1CCN1CCCC(N)CC1 (stereo partly drawn) [Compound 139]	< 0.5 µM	> 1 µM	< 8 µg/mL	8 to 32 µg/mL	< 8 µg/mL	> 32 µg/mL	< 8 µg/mL	–	–	–	–	–	–
CC(Cc1ccc(-n2ccc(NC(=O)N3CCN(C(=O)C(C)(C)N)CC3)nc2=O)cc1)N[C@H]1CC[C@@H](N)CC1 (stereo partly drawn) [Compound 174]	< 0.5 µM	> 1 µM	–	–	–	–	–	< 8 µg/mL	> 32 µg/mL	< 8 µg/mL	8 to 32 µg/mL	< 8 µg/mL	–
CC(C)CN(Cc1ccc(-n2ccc(NC(=O)N3CCN(C(=O)C(C)(C)N)CC3)nc2=O)cc1)[C@H]1CC[C@H](N)CC1 [Compound 129]	< 0.5 µM	> 1 µM	< 8 µg/mL	8 to 32 µg/mL	< 8 µg/mL	< 8 µg/mL	< 8 µg/mL	–	–	–	–	–	–
